Test results from US20260327232A1, “Heteroaryl Compounds as Ligand Directed Degraders of IRAK4” (Celgene Corporation, priority 2023, published 2026).

Columns and labels:
IRAK4 [1] = target: T1, IRAK4 (Homo sapiens, UniProt Q9NWZ3); assay: IRAK4 PhosphoSens Biochemical Assay (BIOCHEM); conditions: 200 μM ATP, 10 μM peptide substrate AQT0326, 1 nM IRAK4, room temperature, 240 minutes
T1 sequence (Q9NWZ3 1-460): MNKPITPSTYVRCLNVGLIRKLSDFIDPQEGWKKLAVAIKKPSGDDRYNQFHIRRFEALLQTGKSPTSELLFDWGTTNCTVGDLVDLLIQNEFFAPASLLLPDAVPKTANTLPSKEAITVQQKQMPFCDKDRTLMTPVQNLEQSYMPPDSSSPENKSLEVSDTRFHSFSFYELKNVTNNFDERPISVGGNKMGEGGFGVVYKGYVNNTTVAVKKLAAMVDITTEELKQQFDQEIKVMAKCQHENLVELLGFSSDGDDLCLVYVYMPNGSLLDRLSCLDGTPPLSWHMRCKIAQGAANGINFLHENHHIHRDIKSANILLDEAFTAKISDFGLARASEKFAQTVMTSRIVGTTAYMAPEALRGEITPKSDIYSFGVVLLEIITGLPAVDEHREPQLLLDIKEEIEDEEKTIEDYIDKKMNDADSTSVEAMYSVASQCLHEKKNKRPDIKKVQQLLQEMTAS
Description: The PhosphoSens® biochemical assay was performed as described by the vendor (AssayQuant Technologies Inc. Marlborough, MA). A 1.25× stock solution of IRAK4 (PV4002, ThermoFisher Scientific, Waltham, MA) and a 5× stock solution of ATP and Sox conjugated peptide substrate, AQT0326 (CSKS-AQT0326B, AssayQuant Technologies), were prepared in 1× kinase reaction buffer consisting of 50 mM HEPES, pH 7.5, 0.01% Brij-35, 0.5 mM EGTA, 20 mM MgCl2 and 1 mM DTT. 10 μL of the ATP and substrate solution mix, for a final concentration of 200 μM ATP and 10 μM peptide substrate, was added to a Coming 3574 384-well, white, non-binding surface microtiter plate containing 0.5 μL of serially diluted test compounds prepared in DMSO. The reactions were started with the addition of 40 μL of the enzyme solution, for a final IRAK4 concentration of 1 nM, and monitored every 71 seconds for 240 minutes at λEX 360/λEM 485 in a BioTek Synergy H4 plate reader (Agilent Technologies, Santa Clara, CA) at room temperature. The initial linear portions of the progress curves were fit according to a linear equation to yield the slopes and converted to % inhibition based on a value of 100% activity for the no inhibitor treated control. IC50 values of each compound were obtained by fitting the % inhibition-compound concentration curves using Dotmatics software (Dotmatics, Bishops Stortford, Hertfordshire, England).

IRAK4 [2] = target: T1, IRAK4; assay: ALE THP1 HTRF (IRAK4 in THP1 cell lysates, Homogeneous Time Resolved Fluorescence); type: cell-based; design: THP1 Homogeneous Time Resolved Fluorescence (ALE THP1 HTRF) Procedure; endogenous in cells; host or cells: THP1; conditions: THP1 cells
Description: Cell culture media was prepared in a tissue culture hood in a sterile environment by adding 10% FBS and 1% Penicillin Streptomycin to 500 mL no phenol red RPMI 1640 media. The media was filtered through a Nalgene Bottle Top Filter and stored at 4° C.
For Homogenous Time Resolved Fluorescence (HTRF) assays, a Cisbio HTRF kit was used, which included: Lysis Buffer #1 4×, Blocking Reagent #3 100×, 20× Antibody 1 (Anti-IRAK4 d2), 20× Antibody 2 (Anti-IRAK4 k), and Detection Buffer.
4× Lysis Buffer was stored at 4° C. For use as 1× Lysis buffer, the 4× solution was diluted with de-ionized water (distilled water, Gibco Cat. #15230279) and 100× Blocking Reagent in a 1:3:0.04 volume ratio.
20× Antibody Solution aliquots were stored in −80° C. and the Detection Buffer was stored in 4° C. For use as a 1× Antibody Solution, the 20× Antibody Solution aliquot was diluted with Detection Buffer in a 1:19 volume ratio.
Cells were lysed at room temperature for 45 min with shaking. A BCA protein assay was performed and normalization was conducted to the desired total protein concentration with 1× lysis buffer. Next, 1× Antibody Solutions were prepared by adding 380 μL Detection Buffer to 20 μL 20× Antibody Solution aliquots and mixing well. 1× Antibody Solutions were combined 1:1 and briefly vortexed. For control wells, 20 μL 1× anti IRAK4-k Antibody Solution was saved. The 384-well plate (ProxiPlate-384 Plus, Perkin Elmer Cat. #6008289) was loaded by adding 4 μL of the mixed Antibody Solution to empty wells using a single channel repeater. Using a multi-channel repeater, 16 μL lysate was added per well, and any bubbles that were formed were popped with 20 μL pipette tips and Kimwipe edges. In column 10, triplicates of each control was prepared. In wells A10, B10, and C10, buffer control was prepared by adding 16 μL Lysis Buffer and 4 μL Detection Buffer. In wells D10, E10, and F10, cryptate control was prepared by adding 16 μL Lysis Buffer, 2 μL Detection Buffer, and 2 μL 1× anti IRAK4-k Antibody Solution. In wells G10, H10, and 110, a negative control was prepared by adding 16 μL Lysis Buffer and 4 μL mixed Antibody Solution. The plate was sealed with a clear seal and covered with an aluminum lid. The plate was spun down at 800 g for 5 min and incubated in the dark at room temperature overnight. The next day, the plate was spun down at 800 g for 5 min. The samples were analyzed by a plate reader (Envision, PerkinElmer) using the Desnor 384 HTRF program.

Structure (SMILES) | IC50 (IRAK4 [1]) [nM] | EC50 (IRAK4 [2]) [nM]
CN(c1cccc2c(C3CCC(=O)NC3=O)nn(C)c12)C1CCN(CCC2CCC(n3cc(NC(=O)c4cnn5ccc(N6CCOCC6)nc45)c(C(F)F)n3)CC2)CC1 (stereo not drawn) [P-39] | < 0.5 | > 10000
CN(CC1CCC(n2cc(NC(=O)c3cnn4ccc(N5C[C@H]6CC[C@@H](C5)O6)nc34)c(C(F)F)n2)CC1)C1CCN(c2ccc3c(C4CCC(=O)NC4=O)nn(C)c3c2)CC1 (stereo partly drawn) [P-42] | < 0.5 | > 10000
CN(CC1CCC(n2cc(NC(=O)c3cnn4ccc(N5Cc6cnn(C)c6C5)nc34)c(C(F)F)n2)CC1)C1CCN(c2ccc3c(C4CCC(=O)NC4=O)nn(C)c3c2)CC1 (stereo not drawn) [P-49] | 0.8 | > 10000
CN(CC1CCC(n2cc(NC(=O)c3cnn4ccc(N5CC[C@H](C#N)C5)nc34)c(C(F)F)n2)CC1)C1CCN(c2ccc3c(C4CCC(=O)NC4=O)nn(C)c3c2)CC1 (stereo partly drawn) [P-50] | 0.8 | > 10000

Now from value to compound:

IC50 (IRAK4 [1]) [nM] | EC50 (IRAK4 [2]) [nM] | Structure (SMILES)
< 0.5 | 5 | CN(CC1CCC(n2cc(NC(=O)c3cnn4ccc(N5C[C@H](N)C[C@@H](F)C5)nc34)c(C(F)F)n2)CC1)C1CCN(c2ccc3c(C4CCC(=O)NC4=O)nn(C)c3c2)CC1 (stereo partly drawn) [P-28, N-[3-(Difluoromethyl)-1-[4-[[[1-[3-(2,6-dioxo-3-piperidyl)-1-methyl-indazol-6-yl]-4-piperidyl]-methyl-amino]methyl]cyclohexyl]pyrazol-4-yl]-5-[(3r,5r)-3-amino-5-fluoro-1-piperidyl]pyrazolo[1,5-a]pyrimidine-3-carboxamide]
< 0.5 | 14 | CN(CC1CCC(n2cc(NC(=O)c3cnn4ccc(N5C[C@H](N)C[C@@H](F)C5)nc34)c(C(F)F)n2)CC1)C1CCN(c2cccc3c(C4CCC(=O)NC4=O)nn(C)c23)CC1 (stereo partly drawn) [P-30, N-[3-(difluoromethyl)-1-[4-[[[1-[3-(2,6-dioxo-3-piperidyl)-1-methyl-indazol-7-yl]-4-piperidyl]-methyl-amino]methyl]cyclohexyl]pyrazol-4-yl]-5-[(3R,5R)-3-amino-5-fluoro-1-piperidyl]pyrazolo[1,5-a]pyrimidine-3-carboxamide]
